Source: patent US8936787B2, “Peptides promoting lipid efflux” (The United States of America as represented by the …, priority 2008, dated 2015)
Entries after “also recorded” stand apart in the source; their conditions may differ.

Columns and labels:
[1] = system: C57B1/6 mice; experiment: Plasma triglycerides in C57B1/6 mice, 18A-C-II; format: in vivo; settings: 1 mg (30 mg/kg) co-injected
Experimental: FIG. 18 is a graph illustrating the ability of 18A-C-II:POPC peptide (peptide with SEQ ID NO: 70) to prevent hypertriglyceridemia. The 18A-C-II:POPC peptide was lipidated with POPC at the ratio of 1:7. Hypertriglyceridemia was induced in C57B1/6 mice by a 2 mg (60 mg/kg) bolus intravenous (IV) injection of free 5A peptide (Δ). […] In addition, a single IV dose of 1 mg of the 18A-C-II:POPC peptide lowered the plasma triglyceride levels in normal C57B1 mice (□) compared to saline (⋄).
18A-C-II peptide (SEQ ID NO: 70) was complexed with POPC at a 1:7 molar ratio using a co-lyophilization procedure by which the free peptide and POPC were co-dissolved in glacial acetic acid and lypophilized. The dry powder was reconstituted with saline and heated between 37° C. to 50° C. to reconstitution, which results in a clear solution of particles containing both the 18A-C-II peptide and POPC.
Hypertriglyceridemia was induced in C57B1/6 mice by a 2 mg (60 mg/kg) bolus IV injection of free 5A peptide (A). […] In addition, a single IV dose of 1 mg of the 18A-C-II:POPC peptide lowered the plasma triglyceride levels in normal C57B1 mice (□) compared to saline (⋄).

[2] = system: BHK and BHK-ABCA1 cells; experiment: Cholesterol efflux from BHK and BHK-ABCA1 cells; format: cell-based; settings: 20 ug/ml free peptide, 18 hours
Experimental: FIG. 23 is a graph illustrating the effect of 18A-C-II peptide on cholesterol efflux. BHK and BHK-ABCA1 cells were loaded with ^3H-cholesterol for 24 hours at 37° C. and then 20 ug/ml of the free 18A-C-II peptide was added as cholesterol acceptor to efflux for 18 hours. Percentage efflux was calculated by subtracting the radioactive counts in the blank from the radioactive counts in the presence of an acceptor and then dividing the result by the sum of the radioactive counts in the medium plus the cell fraction.
The effect of 18A-C-II peptide on cholesterol efflux was investigated by loading BHK and BHK-ABCA1 cells with ^3H-cholesterol for 24 hours at 37° C. and then adding 20 ug/ml of the free 18A-C-II peptide as cholesterol acceptor to efflux for 18 hours. Percentage efflux was calculated by subtracting the radioactive counts in the blank from the radioactive counts in the presence of an acceptor and then dividing the result by the sum of the radioactive counts in the medium plus the cell fraction.

## DWLKAFYDKVAEKLKEAFPDLYSKSTAAMSTYTGIFTDQVLSVLKGEE [18A-C-II]
[1]
  increase in plasma triglycerides induced by free 5A peptide (60 mg/kg IV): significantly reduced; also recorded: significantly halted
[2]
  cholesterol efflux, BHK-ABCA1 versus BHK cells: significant difference
